One test deals with AsPC-1 cells. As to the kind of experiment: AsPC-1 cell proliferation assay (CellTiter Glo). Type of test: cell-based. Conditions: Homo sapiens, ASPC1, 144 h, 6 days. The protocol: ASPC-1 and PK-59 cellular assays ASPC-1 (ATCC cat. CRL-1682) and PK-59 (Nanjing Cobioer, Cat. No. CBP61184) were used in KRAS cellular degradation, pERK inhibition and proliferation assays. The two cell lines were maintained following vendor's instructions. For monitoring KRAS (G12D) cellular degradation and pERK biomarker inhibition, cells were seeded into a 96-well plate with 22,000 and 16,000 cells/well for assays in ASPC-1 and PK-59, respectively. Cells were incubated at 37° C. with 5% CO2 and cell density was monitored until ^~90% confluency was reached. Compounds were serially diluted at a 1:3 ratio and dispensed into each well at final concentrations ranging from […] to 1.5 nM. After incubation for 24 hours, the culture media were removed and the cells were subjected to fixation, permeabilization and blocking (Intercept blocking buffer, Li-cor). For KRAS (G12D) degradation, the cells were treated with primary antibody (KRAS G12D antibody, Cell Signaling Technologies, Cat. No. CST14429) and for β-actin (β-actin mAb, Beyotime, Cat. No. AF-5001), and followed by secondary antibodies, Anti-rabbit IgG (H+L) (DyLight™ 800 4×PEG Conjugate) or IRDye® 680RD Goat anti-Mouse IgG. For pERK inhibition assay, cells were treated with primary antibodies for pERK (Phospho-p44/42 MAPK (Erk1/2) (Thr202/Tyr204) (D13.14.4E) XP® Rabbit mAb, Cell Signaling Technologies, Cat. No. CST-4370) and β-actin (β-actin mAb, Beyotime, Cat. No. AF-5001), and followed by secondary antibodies, Anti-rabbit IgG (H+L) (DyLight™ 800 4×PEG Conjugate) or IRDye® 680RD Goat anti-Mouse IgG. Fluorescence signals were read on Odyssey CLX instrument. For cell proliferation assays, cells were seeded into a 96-well plate at 3,500 and 800 cells/well for assays in ASPC-1 and PK-59, respectively. Cells were incubated at 37° C. with 5% CO2 for overnight. Compounds were serially diluted at a 1:3 ratio and dispensed into each well at final concentrations ranging from […] to 1.5 nM. After incubation for 6 days, cell viability reagent (CellTiter Glo, Promega, Cat. No. G7573) was added to each well and luminescence was recorded on Molecular Devices Spectramax iD3 instrument. IC50, half-maximal inhibitory concentration for pERK inhibition or cell proliferation, and DC50, half-maximal degradation concentration in KRAS (G12D) cellular degradation were determined by fitting the corresponding dose response curves using GraphPad Prism software.
Wherein “A” means the value <10 nM, “B” means 10 nM<the value <100 nM, “C” means 100 nM<the value <1000 nM, and “D” means the value >1000 nM, in which, the value means the value of DC50 or IC50. NT means not tested.
Background: In ATP-based viability assays light output follows the ATP content of the culture.

For a further test, the target named is T1, KRAS (G12D) (Homo sapiens, UniProt P01116, G12D).
T1 construct: in-cell western with KRAS G12D antibody after 24 h
Briefly: KRAS (G12D) cellular degradation assay in AsPC-1 cells. The class given is cell-based. As to conditions: 24 hours, antibody fluorescence (Odyssey CLX), DC50 half-maximal degradation concentration. Put shortly: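 AsPC-1 cells: for degradation, grown to ~90% confluency, treated 24 h with 1:3 compound series ([…] to 1.5 nM), then fixed and immunostained for KRAS G12D and β-actin, read by infrared fluorescence, DC50 fitted. Proliferation: 3,500 cells/well, 6-day treatment, CellTiter Glo luminescence, IC50 fitted.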

Molecules are shown by their SMILES. Where only a bound is given, the exact number is not on record here.

T1 sequence (P01116 1-188 isoform P01116-2 G12D): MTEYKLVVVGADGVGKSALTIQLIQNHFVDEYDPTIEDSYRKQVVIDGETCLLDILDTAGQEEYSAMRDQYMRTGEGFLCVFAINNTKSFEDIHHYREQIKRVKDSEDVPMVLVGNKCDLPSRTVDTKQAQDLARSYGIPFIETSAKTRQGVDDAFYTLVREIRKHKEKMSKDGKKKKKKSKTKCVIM

For orientation: IC50 means the midpoint of a concentration-inhibition curve. The low end stands for inhibition by little substance, the high end for a need for much substance. In general, DC50 refers to the concentration at which degradation of the target reaches its halfway point. Read a high DC50 as degradation only at high concentration. In the test on AsPC-1 cells, `CCn1nccc1-c1ccc([C@H](CO)NC(=O)[C@@H]2C[C@@H](O)CN2C(=O)[C@H](C(C)C)n2cc(-c3ccc(COc4c(-c5c(C)c(F)cc6[nH]ncc56)c(C5CC5)cc5c(N6C[C@H]7C[C@@H]6CN7)nc(OC6CCOCC6)nc45)cc3)nn2)cc1` (stereo in doubt) [Example 10, (2S,4R)-1-((2S)-2-(4-(4-(((4-((1R,4R)-2,5-diazabicyclo[2.2.1]heptan-2-yl)-6-cyclopropyl-7-(6-fluoro-5-methyl-1H-indazol-4-yl)-2-((tetrahydro-2H-pyran-4-yl)oxy)quinazolin-8-yl)oxy)methyl)phenyl)-1H-1,2,3-triazol-1-yl)-3-methylbutanoyl)-N—((R)-1-(4-(1-ethyl-1H-pyrazol-5-yl)phenyl)-2-hydroxyethyl)-4-hydroxypyrrolidine-2-carboxamide] returned a half-maximal inhibitory concentration (IC50) of 10 to 100 nM. On KRAS (G12D), this compound displayed a 50% degradation concentration (DC50) of 10 to 100 nM.
`CCn1nccc1C#CC(CO)NC(=O)[C@@H]1C[C@@H](O)CN1C(=O)[C@H](C(C)C)n1cc(-c2ccc(COc3c(-c4c(C)c(F)cc5[nH]ncc45)c(C4CC4)cc4c(N5C[C@@H]6C[C@H]5CN6)nc(OC[C@H](C)OC)nc34)cc2)nn1` (stereo in doubt) [Example 34, (2S,4R)-1-((2S)-2-(4-(4-(((4-((1S,4S)-2,5-diazabicyclo[2.2.1]heptan-2-yl)-6-cyclopropyl-7-(6-fluoro-5-methyl-1H-indazol-4-yl)-2-((S)-2-methoxypropoxy)quinazolin-8-yl)oxy)methyl)phenyl)-1H-1,2,3-triazol-1-yl)-3-methylbutanoyl)-N—((R)-4-(1-ethyl-1H-pyrazol-5-yl)-1-hydroxybut-3-yn-2-yl)-4-hydroxypyrrolidine-2-carboxamide] gave an IC50 in the test with AsPC-1 cells of under 10 nM. Besides, the DC50 at KRAS (G12D) was under 10 nM.
On to `CCn1nccc1-c1ccc([C@@H](NC(=O)[C@@H]2C[C@@H](O)CN2C(=O)[C@H](C(C)C)n2cc(-c3ccc(COc4c(-c5c(C)c(F)cc6[nH]ncc56)c(C5CC5)cc5c(N6C[C@@H]7C[C@H]6CN7)nc(OC[C@H](C)OC)nc45)cc3)nn2)C(C)O)cc1` (stereo in doubt) [Example 75, (2S,4R)-1-((2S)-2-(4-(4-(((4-((1S,4S)-2,5-diazabicyclo[2.2.1]heptan-2-yl)-6-cyclopropyl-7-(6-fluoro-5-methyl-1H-indazol-4-yl)-2-((S)-2-methoxypropoxy)quinazolin-8-yl)oxy)methyl)phenyl)-1H-1,2,3-triazol-1-yl)-3-methylbutanoyl)-N-((1R,2R)-1-(4-(1-ethyl-1H-pyrazol-5-yl)phenyl)-2-hydroxypropyl)-4-hydroxypyrrolidine-2-carboxamide], for which the IC50 with AsPC-1 cells was under 10 nM. The compound also had a 50% degradation concentration (DC50) at KRAS (G12D) of under 10 nM.
`CO[C@@H](C)COc1nc(N(C)[C@H]2CCNC2)c2cc(C3CCC3)c(-c3c(C)c(F)cc4[nH]ncc34)c(OCc3ccc(-c4cn([C@H](C(=O)N5C[C@H](O)C[C@H]5C(=O)N[C@H](c5ccc(-c6scnc6C)cc5)C(C)O)C(C)C)nn4)cc3)c2n1` (stereo in doubt) [Example 142, (2S,4R)-1-((2S)-2-(4-(4-(((6-cyclobutyl-7-(6-fluoro-5-methyl-1H-indazol-4-yl)-2-((S)-2-methoxypropoxy)-4-(methyl((S)-pyrrolidin-3-yl)amino)quinazolin-8-yl)oxy)methyl)phenyl)-1H-1,2,3-triazol-1-yl)-3-methylbutanoyl)-4-hydroxy-N-((1R,2R)-2-hydroxy-1-(4-(4-methylthiazol-5-yl)phenyl)propyl)pyrrolidine-2-carboxamide] yielded a concentration for half-maximal inhibition (IC50) in the test with AsPC-1 cells of under 10 nM. At KRAS (G12D), this compound displayed a DC50 of under 10 nM.
In turn, `CCn1nccc1-c1ccc([C@H](CO)NC(=O)[C@@H]2C[C@@H](O)CN2C(=O)[C@H](C(C)C)n2cc(-c3ccc(COc4c(-c5c(C)c(F)cc6[nH]ncc56)c(C(F)(F)F)cc5c(N6C[C@@H]7C[C@H]6CN7)nc(OC[C@H](C)OC)nc45)cc3)nn2)cc1` [Example 30, (2S,4R)-1-((2S)-2-(4-(4-(((4-((1S,4S)-2,5-diazabicyclo[2.2.1]heptan-2-yl)-7-(6-fluoro-5-methyl-1H-indazol-4-yl)-2-((S)-2-methoxypropoxy)-6-(trifluoromethyl)quinazolin-8-yl)oxy)methyl)phenyl)-1H-1,2,3-triazol-1-yl)-3-methylbutanoyl)-N—((R)-1-(4-(1-ethyl-1H-pyrazol-5-yl)phenyl)-2-hydroxyethyl)-4-hydroxypyrrolidine-2-carboxamide] displayed an IC50 in the test on AsPC-1 cells of under 10 nM. Also, on KRAS (G12D), the half-maximal degradation concentration (DC50) was under 10 nM.
In the test with AsPC-1 cells, `CCn1nccc1-c1ccc([C@H](CO)NC(=O)[C@@H]2C[C@@H](O)CN2C(=O)[C@H](C(C)C)n2cc(-c3ccc(COc4c(-c5c(C)c(F)cc6[nH]ncc56)c(C5CC5)cc5c(N6C[C@@H]7C[C@H]6CN7)nc(OC[C@H](C)OC)nc45)c4c3CC4)nn2)cc1` [Example 31, (2S,4R)-1-((2S)-2-(4-(5-(((4-((1S,4S)-2,5-diazabicyclo[2.2.1]heptan-2-yl)-6-cyclopropyl-7-(6-fluoro-5-methyl-1H-indazol-4-yl)-2-((S)-2-methoxypropoxy)quinazolin-8-yl)oxy)methyl)bicyclo[4.2.0]octa-1,3,5-trien-2-yl)-1H-1,2,3-triazol-1-yl)-3-methylbutanoyl)-N—((R)-1-(4-(1-ethyl-1H-pyrazol-5-yl)phenyl)-2-hydroxyethyl)-4-hydroxypyrrolidine-2-carboxamide] displayed an IC50 of under 10 nM. Besides, the 50% degradation concentration (DC50) at KRAS (G12D) fell in the range of 10 to 100 nM.
The matching figures for `CCn1nccc1-c1ccc([C@H](CO)NC(=O)[C@@H]2C[C@@H](O)CN2C(=O)[C@H](C(C)C)n2cc(-c3ccc(COc4c(-c5c(C)c(F)cc6[nH]ncc56)c(C5CC5)cc5c(N6C[C@@H]7C[C@H]6CN7)nc(OC[C@H](C)OC)nc45)cc3Cl)nn2)cc1` [Example 32, (2S,4R)-1-((2S)-2-(4-(4-(((4-((1S,4S)-2,5-diazabicyclo[2.2.1]heptan-2-yl)-6-cyclopropyl-7-(6-fluoro-5-methyl-1H-indazol-4-yl)-2-((S)-2-methoxypropoxy)quinazolin-8-yl)oxy)methyl)-2-chlorophenyl)-1H-1,2,3-triazol-1-yl)-3-methylbutanoyl)-N—((R)-1-(4-(1-ethyl-1H-pyrazol-5-yl)phenyl)-2-hydroxyethyl)-4-hydroxypyrrolidine-2-carboxamide]: 10 to 100 nM and 10 to 100 nM.
The matching figures for `CCn1nccc1-c1ccc([C@H](CO)NC(=O)[C@@H]2C[C@@H](O)CN2C(=O)[C@H](C(C)C)n2cc(-c3ccc(COc4c(-c5c(C)c(F)cc6[nH]nc(F)c56)c(C5CC5)cc5c(N6C[C@@H]7C[C@H]6CN7)nc(OC[C@H](C)OC)nc45)cc3)nn2)cc1` [Example 33, (2S,4R)-1-((2S)-2-(4-(4-(((4-((1S,4S)-2,5-diazabicyclo[2.2.1]heptan-2-yl)-6-cyclopropyl-7-(3,6-difluoro-5-methyl-1H-indazol-4-yl)-2-((S)-2-methoxypropoxy)quinazolin-8-yl)oxy)methyl)phenyl)-1H-1,2,3-triazol-1-yl)-3-methylbutanoyl)-N—((R)-1-(4-(1-ethyl-1H-pyrazol-5-yl)phenyl)-2-hydroxyethyl)-4-hydroxypyrrolidine-2-carboxamide]: under 10 nM and under 10 nM.
On to `CCn1nccc1-c1ccc([C@H](CO)NC(=O)[C@@H]2C[C@@H](O)CN2C(=O)[C@H](C(C)C)n2cc(-c3ccc(COc4c(-c5c(C)c(F)cc6[nH]ncc56)c(C5CC5)cc5c(N6CC7CCC(C6)N7)nc(OC6CCOCC6)nc45)cc3)nn2)cc1` [Example 35, (2S,4R)-1-((2S)-2-(4-(4-(((4-(3,8-diazabicyclo[3.2.1]octan-3-yl)-6-cyclopropyl-7-(6-fluoro-5-methyl-1H-indazol-4-yl)-2-((tetrahydro-2H-pyran-4-yl)oxy)quinazolin-8-yl)oxy)methyl)phenyl)-1H-1,2,3-triazol-1-yl)-3-methylbutanoyl)-N—((R)-1-(4-(1-ethyl-1H-pyrazol-5-yl)phenyl)-2-hydroxyethyl)-4-hydroxypyrrolidine-2-carboxamide], for which the IC50 in the test on AsPC-1 cells was under 10 nM. This compound gave a 50% degradation concentration (DC50) on KRAS (G12D) of 10 to 100 nM.

Values taken from patent US20260295053A1, “COMPOUNDS FOR DEGRADATION AND INHIBITION OF KRAS (G12D) PROTEIN” (Shenzhen Ionova Life Science Co., Ltd., priority 2023, published 2026).
